Test results as given in patent publication US12534762B2, “Treating atopic dermatitis by targeting the WNT pathway” (Children's Medical Center Corporation, priority 2018, dated 2026).
“Also recorded” adds a separate entry of the source. Peptide text beside a SMILES is read from it. * marks the point of attachment. Cbz = O=C(OCc1ccccc1)*

Columns and labels:
FZD5 = assay: Immunoblot of FZD5 (immature and mature forms) with lysosome/proteasome inhibitors; type: cell-based, human; conditions: HEK293T cells; for TMEM79-induced degradation of immature FZD5: TMEM79 overexpressed; for levels of immature and mature forms of FZD5: absence or presence of TMEM79
Protocol: Cell culture, immunofluorescence, RNA interference and dual luciferase assay. HEK293T cells (ATCC #CRL-11268) and its derivatives were maintained in DMEM supplemented with 10% FBS, penicillin, and streptomycin. ZRKO (ZNRF3 and RNF43 double knockout) cell line was a gift from F. Cong. The FZD null cell line (Fz1-10 knockout) was a gift from B. Vanhollebeke. For immunofluorescence, HEK293T cells were grown on poly-L-lysine-coated glass coverslips. Cells were transfected with Snap-FZD5 and after 24 hours washed with PBS and fixed with 4% paraformaldehyde for 10 min at room temperature. The cells were labeled with 1 μM SNAP-Surface® 488 (BioLabs) for 15 min at room temperature. To visualize endogenous TMEM79, PDI, TGN46 and EEA1, cells were permeabilized with 0.2% Triton X-100 in PBS for 5 min, blocked with 10% normal goat serum and then incubated with respective antibodies for 1 hour at room temperature followed by incubation with secondary antibodies (Alexa Fluor 594 goat anti-rabbit immunoglobulin and Alexa Fluor 488 goat anti-mouse immunoglobulin, Invitrogen). Cells were mounted in Prolong Diamond Antifade Mountant with DAPI (Thermofisher Scientific) and imaged using a Zeiss LSM700 confocal microscope. siRNA transfection was done using Lipofectamine RNAiMAX (Thermofisher Scientific, #13778075). Duplex siRNAs targeting TMEM79 and ZNRF3 were purchased from Sigma. The sequences are as follows: TMEM79-1, 5-[…]dTdT-3 (SEQ ID NO: 19), TMEM79-2, 5-CCAUGAGUUCCCGCCUGAUdTdT-3 (SEQ ID NO: 20). ZNRF3, 5-[…]dTdT-3 (SEQ ID NO: 21). For Top-Flash reporter assay, cells were transduced sequentially with Supertopflash (7TFP, Addgene) and EF1α-Renilla lentiviruses. Cells were plated in 24 well plates and transfected the following day in triplicate using FuGENE HD (Promega, #E2312). Dual luciferase reporter assays were performed using Dual-Luciferase® Reporter Assay System (Promega, #E1960) according to manufacturer's instruction. Representative results are shown from one of three (or more) independent experiments. Immunoblotting, cell surface protein labeling and immunoprecipitation. Total cell lysates in NP40 lysis buffer (50 mM Tris, pH 7.5, 150 mM NaCl, 1 mM EDTA, 1% NP40, 10% glycerol, 10 mM NaF, and protease inhibitor cocktail, pH=7.4) were prepared by gentle rotating at 4° C., followed by centrifugation at top speed for 10 min at 4° C. Samples were run on a SDS-PAGE and transferred to Immobilon-P membrane. To isolate the cytoplasmic fraction of β-catenin, cells were incubated with 0.015% digitonin (in PBS supplemented protease inhibitor cocktail) by gentle rotating at 4° C. for 10 min. Indirect immunochemistry using a secondary antibody conjugated with horseradish peroxidase was visualized using ECL reagents on LAS-4000 imager (FujiFilm). Cell surface proteins were biotinylated using EZ-LinkTMSulfo-NHS—SS-Biotin (Thermo Fisher Scientific) according to manufacturer's protocol. Biotinylated proteins were enriched by Pierce® Streptavidin agarose resins. For immunoprecipitation, transfected HEK293T cells were lysed in NP40 lysis buffer. Cell lysates were incubated with antibody conjugated Agarose beads (Pierce™ Anti-c-Myc Agarose, #20168; Pierce™ Anti-HA Agarose, #26181; Anti-Flag M2 affinity gel, Sigma, A2220; Anti-V5 Agarose Affinity Gel, Sigma, A7345) at 4° C. over night. Beads were washed with lysis buffer 5 times and proteins were eluted in 2× sample buffer.

β-catenin = assay: Immunoblot of cytosolic β-catenin after siRNA depletion of TMEM79 or ZNRF3; type: cell-based, human; conditions: HEK293T cells
Protocol: (§1) Cell culture, immunofluorescence, RNA interference and dual luciferase assay. HEK293T cells (ATCC #CRL-11268) and its derivatives were maintained in DMEM supplemented with 10% FBS, penicillin, and streptomycin. ZRKO (ZNRF3 and RNF43 double knockout) cell line was a gift from F. Cong. The FZD null cell line (Fz1-10 knockout) was a gift from B. Vanhollebeke. For immunofluorescence, HEK293T cells were grown on poly-L-lysine-coated glass coverslips. Cells were transfected with Snap-FZD5 and after 24 hours washed with PBS and fixed with 4% paraformaldehyde for 10 min at room temperature. The cells were labeled with 1 μM SNAP-Surface® 488 (BioLabs) for 15 min at room temperature. To visualize endogenous TMEM79, PDI, TGN46 and EEA1, cells were permeabilized with 0.2% Triton X-100 in PBS for 5 min, blocked with 10% normal goat serum and then incubated with respective antibodies for 1 hour at room temperature followed by incubation with secondary antibodies (Alexa Fluor 594 goat anti-rabbit immunoglobulin and Alexa Fluor 488 goat anti-mouse immunoglobulin, Invitrogen). Cells were mounted in Prolong Diamond Antifade Mountant with DAPI (Thermofisher Scientific) and imaged using a Zeiss LSM700 confocal microscope. siRNA transfection was done using Lipofectamine RNAiMAX (Thermofisher Scientific, #13778075). Duplex siRNAs targeting TMEM79 and ZNRF3 were purchased from Sigma. […]

[1] = test system: phosphorylated LRP6 and phosphorylated DVL; assay: Immunoblot of phosphorylated LRP6 and DVL2 in T79KO and ZRKO cells; type: cell-based, human
Protocol: as §1

Wnt/β-catenin signaling = assay: Top-Flash dual luciferase reporter assay; type: cell-based, human; conditions: HEK293T cells
Protocol: as §1

ma/ma mice = assay: Topical LGK974 cream on Tmem79 ma/ma mice, AD phenotypes; type: in vivo, mouse; conditions: topical cream twice daily, dose to be determined empirically
Excerpt: PORCUPINE (PORCN) is an ER acyl-transferase specifically required for biogenesis and secretion of all WNT proteins. A diverse group of small molecules, referred to as IWP2, LGK974, and C59, each binds to and inhibits PORCN, thereby blocking WNT production. LGK974 and C59 are in phase I clinical trials for cancers that rely on autocrine or local WNT production (Proffitt, K. D., et al., Cancer Res, 2013, 73 (2): p. 502-7; Jiang, X., et al., Proc Natl Acad Sci USA, 2013. 110 (31): p. 12649-54). […] 111 (6): p. 2325-30; Apelian, H. M. C., NJ), Coffin-beach, David (Kendall Park, NJ), Huq, Abu S. (Plainsboro, NJ), Pharmaceutical composition of florfenicol, in U.S. Pat. No. 5,082,862, S. Corporation, January 1992; Malook, S. U. N., GB5), Boon, Peter F. G. (Horsham, GB2), Morgan, James P. (Navan, IE), Method of reducing the swelling or pain associated with antibiotics compositions, in U.S. Pat. No. 4,772,460, L. Bimeda Research and Development, September 1988.). […]
ma ma mice in C57BL/6 have been used as a reliable model for human AD and will be housed under the SPF (specific pathogen-free) conditions at BCH, and analyzed at 2, 4, and 8 weeks for skin phenotypes as described (Sasaki, T., et al., J Allergy Clin Immunol, 132 (5): p. 1111-1120 e4, 2013; Saunders, S. P., et al., J Allergy Clin Immunol, 132 (5): p. 1121-9, 2013). […]

In the case of `CO/C1=C\C(C)=C\[C@@H](C)[C@@H](O)[C@@H](C)C/C(C)=C/C=C/[C@H](OC)[C@@H]([C@@H](C)[C@@H](O)[C@H](C)[C@@]2(O)C[C@@H](O)[C@H](C)[C@@H](C(C)C)O2)OC1=O` [Bafilomycin A1], the “TMEM79-induced lysosomal degradation of FZD5” value (FZD5) is reported as “prevented”, the “TMEM79-induced degradation of immature FZD5” value (FZD5) is reported as “inhibited” and the “TMEM79-induced degradation of immature FZD5” value (FZD5; listed as Baf A1) is reported as “blocked”. The “levels of immature and mature forms of FZD5” value (“levels … of FZD5” below) (FZD5) was “elevated levels” and the “levels … of FZD5” value (FZD5; listed as BAF A1) was “increased”.
For `Cc1ccc2nc(NC(=O)CSc3nc4c(c(=O)n3-c3ccccc3)SCC4)sc2c1` [IWP-2], the “elevated levels of β-catenin protein caused by depletion of TMEM79 or ZNRF3” value (β-catenin) was “prevented; also recorded: suppressed”, the “elevated levels of phosphorylated LRP6 and phosphorylated DVL” value [1] was “inhibited; also recorded: suppressed” and the “TOP-Flash reporter induction by USP8C” value (Wnt/β-catenin signaling; USP8C transfected) was “abolished; also recorded: inhibited”. For the same molecule, the “elevated levels of TOP-Flash caused by depletion of TMEM79 or ZNRF3” value (Wnt/β-catenin signaling; siRNA depletion) was “abolished; also recorded: suppressed”.
With `Cc1cc(-c2ncc(CC(=O)Nc3ccc(-c4cnccn4)cn3)cc2C)ccn1` [LG974] the “AD phenotypes of ma mice” value (ma/ma mice) was “ameliorated”.
In the case of `CC(C)C[C@@H](C=O)NC(=O)[C@H](CC(C)C)NC(=O)[C@H](CC(C)C)NC(=O)OCc1ccccc1` [MG132] (Cbz-Leu-Leu-Leu-aldehyde), the “levels … of FZD5” value (FZD5) is reported as “did not affect”.
